Test results as given in patent US12497411B2, “Muscarinic acetylcholine receptor subtype 4 antagonists in the treatment of anemia” (COLD SPRING HARBOR LABORATORY, priority 2019, dated 2025).
Counter-ions that a name gives are not always drawn.

Columns and labels:
Mouse BFU-Es = assay: Primary mouse BFU-E culture assay (cell expansion); assay type: cell-based; details: for potency in stimulating BFU-E expansion: mouse primary cell BFU-E culture assay
Experimental: Primary mouse BFU-Es were isolated from mouse embryonic day 14.5 (E14.5) fetal liver and cultured in StemSpan serum-free expansion medium, and the numbers of cells formed were counted during culture. BFU-Es were infected with either viruses encoding control shRNA or viruses encoding shRNAs targeting Chrm4, and numbers of GFP+ cells formed during culture were counted. DMSO or 25 mg/kg oxyphenonium bromide was intraperitoneally injected into the hemolysis mouse model, Mx1-cre Srsf2 P95H/WT MDS mouse model, and aging mouse model. Complete blood count (CBC) was performed after compound injection. CREB ChIP-Seq was performed on BFU-Es after culture with 100 μM oxyphenonium bromide for 45 minutes. RNA-Seq was performed in BFU-Es after being cultured with DMSO or oxyphenonium bromide for 3 days.
BFU-Es were isolated from mouse embryonic day 14.5 fetal liver using fluorescence-activated cell sorting (FACS) method previously described (Flygare et al., Blood 117, 3435-3444 (2011)). BFU-Es were cultured in StemSpan SFEM II medium containing rmSCF (100 ng/ml), EPO (2 U/ml), rmIGF-1 (40 ng/ml), dexamethasone (1 nmol/ml or 10 nmol/ml), oxyphenonium bromide ([…]), and orphenadrine citrate (1 μmol/ml).
BFU-Es were isolated from mouse embryonic day 14.5 fetal liver using fluorescence-activated cell sorting (FACS) method. BFU-Es were cultured in StemSpan SFEM II medium containing rmSCF (100 ng/ml), EPO (2 U/ml), rmIGF-1 (40 ng/ml), dexamethasone (1 nM), together with either DMSO, PCS1055 (5 nM), or PD102807 (3 nM). Numbers of cell formed were counted during in vitro culture.
FIGS. 7 and 8 show the results of the primary BFU-E culture assay. […] Highly purified BFU-Es were isolated as lin-Ter-119-CD16/CD32-Sca-1-CD41-c-Kit+CD71/Cd24a^10% low population using the fluorescence-activated cell sorting (FACS) method. BFU-Es were cultured in medium containing rmSCF, EPO, and rmIGF-1, in the presence of PD102807 or Compounds A-K at indicated concentrations.

CHRM4 = target: T1, CHRM4 (Homo sapiens, UniProt P08173); assay: Radioligand binding assay, CHRM4; design: expressed in transfected cells; host or cells: CHO cells (membranes); details: [3H]4-DAMP (0.2 nM), CHO cell membranes, 60 minutes at room temperature; read-out: Ki M4
T1 sequence (P08173 1-479): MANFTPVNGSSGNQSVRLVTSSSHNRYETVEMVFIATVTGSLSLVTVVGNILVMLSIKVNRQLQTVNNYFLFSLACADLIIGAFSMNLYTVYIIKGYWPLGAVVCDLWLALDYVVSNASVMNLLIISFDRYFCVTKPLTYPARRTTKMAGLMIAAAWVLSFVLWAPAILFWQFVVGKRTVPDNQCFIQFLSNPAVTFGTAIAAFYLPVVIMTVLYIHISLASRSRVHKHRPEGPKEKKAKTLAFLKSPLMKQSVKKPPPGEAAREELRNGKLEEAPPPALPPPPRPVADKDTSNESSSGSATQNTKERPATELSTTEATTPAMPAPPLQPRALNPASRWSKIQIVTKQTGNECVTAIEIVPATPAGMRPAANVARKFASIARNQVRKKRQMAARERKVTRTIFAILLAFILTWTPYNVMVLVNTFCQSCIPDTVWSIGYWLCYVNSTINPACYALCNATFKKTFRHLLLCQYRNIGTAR
Experimental: (§1) PD102807 and Compounds A-K at concentrations of 1×10^−9 M, 1×10^−8 M, 1×10^−7 M, 1×10^−6 M, and 1×10^−5 M were tested in standard binding assays with radioligands and cell membranes with receptors. Compound binding was calculated as a percent inhibition of the binding of a radioactively labeled ligand specific for each target, and the Ki values were determined. For CHRM1, the binding assay was performed using [^3H]pirenzepine (2 nM) as a radioligand and membranes of CHO cells with human recombinant CHRM1 receptor. The incubation time was 60 minutes at room temperature. For CHRM2, the binding assay was performed using [^3H]AF-DX 384 (2 nM) as a radioligand and membranes of CHO cells with human recombinant CHRM2 receptor. The incubation time was also 60 minutes at room temperature. For CHRM3, the binding assay was performed using [^3H]4-DAMP (0.2 nM) as a radioligand and membranes of CHO cells with human recombinant CHRM3 receptor. The incubation time was also 60 minutes at room temperature. For CHRM4, the binding assay was performed using [^3H]4-DAMP (0.2 nM) as a radioligand and membranes of CHO cells with human recombinant CHRM4 receptor. The incubation time was also 60 minutes at room temperature. For CHRM5, the binding assay was performed using [^3H]4-DAMP (0.3 nM) as a radioligand and membranes of CHO cells with human recombinant CHRM5 receptor. The incubation time was also 60 minutes at room temperature.

[1] = system: PHZ induced hemolytic anemia in C57bl/6 mice; assay: PHZ induced hemolytic anemia mouse model, CBC; assay type: in vivo; details: subcutaneous injection; B 1.5, 3 or 5 mg/kg; I 0.5, 0.7 or 1 mg/kg; 60 mg/kg phenylhydrazine
Experimental: Animal experiments were conducted in the Cold Spring Harbor Laboratory Animal Shared Resource in accordance with Institutional Animal Care and Use Committee-approved procedures. 4-6 weeks old C57bl/6 mice, purchased from Jackson Laboratory and randomly distributed into compound and control treatment groups, were given through oral delivery of PCS1055 (50 mg/kg or 100 mg/kg) twice per day or PD102807 (50 mg/kg or 100 mg/kg) once per day everyday for 3 days. On day 3, mice were intraperitoneally injected with 60 mg/kg PHZ. Mice were then given through oral delivery of PD102807 (50 mg/kg or 100 mg/kg) once per day every day for 2 days. Peripheral blood samples were collected retro-orbitally on day 6 using heparinized capillary tubes in blood collection tubes with K2-EDTA. CBC was performed using Hemavet 950. […] C57bl/6 mice were injected with 60 mg/kg phenylhydrazine to induce hemolysis. Mice were delivered with either vehicle control or Compound A or B (30 mg/kg or 100 mg/kg). Peripheral blood samples were collected retro-orbitally using heparinized capillary tubes into blood collection tubes with K2-EDTA. Complete blood counting was performed using Hemavet 950. Hematocrit (HCT), red blood cell (RBC) and hemoglobin (Hb) values are shown. […] C57bl/6 mice were injected with 60 mg/kg phenylhydrazine to induce hemolysis. Mice were delivered with subcutaneous injection with either vehicle control or Compound B (1.5 mg/kg, 3 mg/kg, or 5 mg/kg) or I (0.5 mg/kg, 0.7 mg/kg, or 1 mg/kg). Peripheral blood samples were collected retro-orbitally using heparinized capillary tubes into blood collection tubes with K2-EDTA. Complete blood counting was performed using Hemavet 950. Hematocrit (HCT), red blood cell (RBC) and hemoglobin (Hb) values are shown.

[2] = target: T2, human recombinant CHRM3 receptor (Homo sapiens, UniProt P20309); assay: Radioligand binding assay, CHRM3; details: [3H]4-DAMP (0.2 nM), CHO cell membranes, 60 minutes at room temperature; read-out: Ki M3
T2 construct: expressed in transfected cells; host or cells: CHO cells (membranes)
Experimental: as §1

[3] = target: T3, human recombinant CHRM1 receptor (Homo sapiens, UniProt P11229); assay: Radioligand binding assay, CHRM1; details: [3H]pirenzepine (2 nM), CHO cell membranes, 60 minutes at room temperature; read-out: Ki M1
T3 construct: expressed in transfected cells; host or cells: CHO cells (membranes)
T3 sequence (P11229 1-460): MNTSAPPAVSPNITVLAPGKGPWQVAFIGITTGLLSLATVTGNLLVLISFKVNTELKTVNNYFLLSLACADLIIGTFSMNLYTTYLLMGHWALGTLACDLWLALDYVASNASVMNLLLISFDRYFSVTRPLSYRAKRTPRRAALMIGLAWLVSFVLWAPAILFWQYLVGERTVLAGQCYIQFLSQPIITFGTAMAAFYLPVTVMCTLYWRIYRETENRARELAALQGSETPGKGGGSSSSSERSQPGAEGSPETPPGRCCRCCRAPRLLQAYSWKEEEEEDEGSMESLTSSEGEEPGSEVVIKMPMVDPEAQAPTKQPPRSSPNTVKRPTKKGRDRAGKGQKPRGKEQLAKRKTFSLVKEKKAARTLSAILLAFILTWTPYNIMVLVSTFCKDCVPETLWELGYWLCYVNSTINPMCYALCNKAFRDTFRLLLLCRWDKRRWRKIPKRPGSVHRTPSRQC
Experimental: as §1

[4] = target: T4, human recombinant CHRM2 receptor (Homo sapiens, UniProt P08172); assay: Radioligand binding assay, CHRM2; details: [3H]AF-DX 384 (2 nM), CHO cell membranes, 60 minutes at room temperature; read-out: Ki M2
T4 construct: expressed in transfected cells; host or cells: CHO cells (membranes)
T4 sequence (P08172 1-466): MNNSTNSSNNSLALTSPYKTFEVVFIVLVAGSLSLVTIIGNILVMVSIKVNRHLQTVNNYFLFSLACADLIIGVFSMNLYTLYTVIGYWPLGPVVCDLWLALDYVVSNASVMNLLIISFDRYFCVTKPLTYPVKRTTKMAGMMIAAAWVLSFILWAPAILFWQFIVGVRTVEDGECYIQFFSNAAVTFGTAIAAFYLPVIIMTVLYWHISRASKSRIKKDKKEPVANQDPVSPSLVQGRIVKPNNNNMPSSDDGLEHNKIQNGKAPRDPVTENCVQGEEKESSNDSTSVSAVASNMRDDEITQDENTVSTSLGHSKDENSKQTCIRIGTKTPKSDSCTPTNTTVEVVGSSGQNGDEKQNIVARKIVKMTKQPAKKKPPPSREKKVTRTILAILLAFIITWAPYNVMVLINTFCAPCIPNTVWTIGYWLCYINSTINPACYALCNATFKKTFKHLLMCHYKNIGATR
Experimental: as §1

[5] = target: T5, human recombinant CHRM5 receptor (Homo sapiens, UniProt P08912); assay: Radioligand binding assay, CHRM5; details: [3H]4-DAMP (0.3 nM), CHO cell membranes, 60 minutes at room temperature; read-out: Ki M5
T5 construct: expressed in transfected cells; host or cells: CHO cells (membranes)
T5 sequence (P08912 1-532): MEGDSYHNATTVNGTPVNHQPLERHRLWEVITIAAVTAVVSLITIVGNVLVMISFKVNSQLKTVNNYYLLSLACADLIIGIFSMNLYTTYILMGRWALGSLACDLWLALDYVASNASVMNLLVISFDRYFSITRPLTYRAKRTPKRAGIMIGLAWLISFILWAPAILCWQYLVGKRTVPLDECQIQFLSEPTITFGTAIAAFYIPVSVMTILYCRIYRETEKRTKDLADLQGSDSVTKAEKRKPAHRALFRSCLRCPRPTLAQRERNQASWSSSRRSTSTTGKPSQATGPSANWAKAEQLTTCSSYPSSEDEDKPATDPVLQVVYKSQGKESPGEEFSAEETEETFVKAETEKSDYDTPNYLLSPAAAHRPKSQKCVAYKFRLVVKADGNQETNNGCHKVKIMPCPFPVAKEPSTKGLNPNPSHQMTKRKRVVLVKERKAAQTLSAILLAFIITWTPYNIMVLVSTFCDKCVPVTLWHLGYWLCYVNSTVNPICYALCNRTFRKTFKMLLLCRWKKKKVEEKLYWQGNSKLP
Experimental: as §1

T2 sequence (P20309 whole entry): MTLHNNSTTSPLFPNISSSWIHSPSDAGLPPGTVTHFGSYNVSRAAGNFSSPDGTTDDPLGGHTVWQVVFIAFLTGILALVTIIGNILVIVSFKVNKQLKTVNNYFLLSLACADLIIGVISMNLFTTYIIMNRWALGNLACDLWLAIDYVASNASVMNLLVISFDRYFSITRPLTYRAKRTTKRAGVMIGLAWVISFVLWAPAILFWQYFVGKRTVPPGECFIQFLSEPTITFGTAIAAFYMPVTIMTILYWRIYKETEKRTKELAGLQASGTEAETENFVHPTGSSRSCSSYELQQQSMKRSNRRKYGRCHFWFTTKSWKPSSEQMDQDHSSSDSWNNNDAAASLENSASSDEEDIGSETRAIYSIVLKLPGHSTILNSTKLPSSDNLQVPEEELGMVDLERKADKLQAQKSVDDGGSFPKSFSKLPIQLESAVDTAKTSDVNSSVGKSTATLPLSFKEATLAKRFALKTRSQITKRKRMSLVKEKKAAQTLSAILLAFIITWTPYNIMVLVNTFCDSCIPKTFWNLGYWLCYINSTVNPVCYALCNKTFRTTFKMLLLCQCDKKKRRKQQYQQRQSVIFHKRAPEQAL

Ki (CHRM4) [nM]	Ki [2] [nM]	Ki [3] [nM]	Ki [4] [nM]	Ki [5] [nM]	SMILES	potency in stimulating BFU-E expansion (Mouse BFU-Es)	treatment of anemia in vivo (HCT, RBC, Hb) [1]	fold cell expansion (Mouse BFU-Es; 5 μM KT5720 (with 3 nM PD102807), day 9, vs untreated)	BFU-E expansion (test of GPCR agonists and antagonists) (Mouse BFU-Es; mouse BFU-E culture)
4300	–	–	–	–	CCOC(=O)c1c(C)[nH]c2ccc3c(c12)C[N+]1(C)CCc2cc(OC)ccc2C1O3 (single isomer, unassigned) [Compound B, 1-(ethoxycarbonyl)-9-methoxy-2,13-dimethyl-3,6a,11,12,13,14-hexahydroindolo[4′,5′:5,6][1,3]oxazino[2,3-a]isoquinolin-13-ium Iodide]	slightly less potent than the others	treat anemia in vivo	–	–
4.6	600	5200	850	–	CCOC(=O)c1c(C)n(C)c2ccc3c(c12)CN1CCc2cc(OC)ccc2C1O3 (centres unmarked) [Compound C, Ethyl 9-methoxy-2,3-dimethyl-3,6a,11,14-tetrahydro-12H-indolo[4′,5′:5,6][1,3]oxazino[2,3-a]isoquinoline-1-carboxylate]	–	–	–	–
42	740	280	59	–	CCOC(=O)c1c(C)n(C)c2ccc(O)c(CN3CCc4cc(OC)ccc4C3)c12 [Compound D, Ethyl 5-hydroxy-4-((6-methoxy-3,4-dihydroisoquinolin-2(1H)-yl)methyl)-1,2-dimethyl-1H-indole-3-carboxylate]	–	–	–	–
1500	–	8500	2600	–	CCOC(=O)c1c(C)[nH]c2ccc(OC)c(CN3CCc4cc(OC)ccc4C3)c12 [Compound E, ethyl 5-methoxy-4-((6-methoxy-3,4-dihydroisoquinolin-2(1H)-yl)methyl)-2-methyl-1H-indole-3-carboxylate]	–	–	–	–
54	400	54	100	980	CCOC(=O)c1c(C)n(C)c2cc(C[N+]3(C)CCc4cc(OC)ccc4C3)c(OC)cc12 (centres unmarked) [Compound K]	–	–	–	–
950	3900	–	3900	–	CCOC(=O)c1c(C)n(C)c2ccc(OC)c(CN3CCc4cc(OC)ccc4C3)c12 [F]	slightly less potent than the others	–	–	–
8.9	1700	1300	750	–	CCOC(=O)c1c(C)n(C)c2cc(CN3CCc4cc(OC)ccc4C3)c(OC)cc12 [J]	–	–	–	–
–	–	–	–	–	CCCCCCOC(=O)[C@]1(O)C[C@@H]2O[C@@]1(C)n1c3ccccc3c3c4c(c5c6ccccc6n2c5c31)C(=O)NC4 [KT5720]	–	–	significantly reduced fold cell expansion	–
–	–	–	–	–	Cc1ccccc1C(OCCN(C)C)c1ccccc1 (centres unmarked) [orphenadrine citrate]	–	–	–	triggered BFU-E expansion
